Laboratory results published in US20130338264A1, “CONDENSATION PRODUCTS OF MELAMINE AND PHENYLPHOSPHONIC ACID AND THEIR USE AS FLAME RETARDANTS” (BASF SE, priority 2011, published 2013).

Columns and labels:
[1] = Decomposition by TGA (thermogravimetric analysis); assay type: physicochemical; settings: for TGA onset [° C.]: overview table
Protocol: Melamine hydrogenphenylphosphonate (MPPO) from example 1 (10.000 g, 0.04 mol) is tempered in a glass tube at 300° C./5·10^−1 mbar for 2 h and additional for 22 h. The mass balance is monitored for the residual by gravimetrically methods. The obtained product is characterized by phosphorous content, 1,3,5-triazine components and thermogravimetry.
Based on the results of the thermo gravimetric analysis (TGA) of the compounds in examples A1-A5 one can conclude that the condensation of melamine hydrogene phenyphosphonate occurs in a two step mode. […] The mode of condensation therefore may be controlled in a balanced thermometric and stoichiometric approach. According to example A2-A4 in a temperature range of 280-300° C. melam formation is favoured. However, other temperature profiles could be more suitable for other stoichiometric ratios. The increasing phosphorous content in the compounds of example A2-A3 in comparison to example A5 points to the condensation of phenylphosphonic anions.

Solubility in water = assay type: physicochemical
Protocol: Solubility in water: 11 g/L (25° C.); 70 g/L (95° C.)

Substance	Decomposition by TGA: onset [1] [°C]	TGA Mass loss at T ° C. [%] ([1]; T = 372 ° C.)	Decomposition by TGA: mass loss at onset ([1]; at onset 345° C., 1 molÄq H2O) [%]	Decomposition by TGA: mass loss at onset ([1]; at onset 372° C.) [%]	TGA onset [° C.] [1] [°C]	Decomposition by TGA: onset (second step) ([1]; second onset printed) [°C]	Solubility in water (Solubility in water; 25° C.) [g/L]	Solubility in water (Solubility in water; 95° C.) [g/L]	TGA Mass loss at T ° C. [%] ([1]; T = 320 ° C.)	Decomposition by TGA: mass loss at onset ([1]; at onset 277° C.) [%]
Melam Phenylhydrogenphosphonate [Example A5]	345	372 [−15%]	−4.5	−55	345	372				
Melamine Phenylhydrogenphosphonate (MPPO) [Example A1]	277				277		11	70	320 [−10%]	−12
